This is an account of results in ChEMBL document CHEMBL5634082, “Recent advances in the development of inhibitors targeting KRAS-G12C and its related pathways” (Eur J Med Chem, 2023).

Data set [1] in a line: Inhibition of ERK phosphorylation in human NCI-H358 cells harboring KRAS G12C mutant incubated for 6 hrs by Western blot analysis. Format: cell-based. As to conditions: NCI-H358, 6 h. Background: A western blot detects proteins with antibodies after separation by electrophoresis.
Data set [2] in a line: Inhibition of ERK phosphorylation in human NCI-H358 cells incubated for 3 hrs. Type of data set: cell-based. The conditions noted are these: NCI-H358, 3 h.
For data set [3], the target named is GTPase KRas (Homo sapiens, UniProt P01116, G12V). The experiment in a line: Binding affinity to Cys12 residue of GDP bound human KRAS […] mutant expressed in Escherichia coli BL21 Rosetta cells assessed as dissociation constant by HSQC NMR spectral analysis.
The target of data set [4] is GTPase KRas (Homo sapiens, UniProt P01116, G12C). Nature of the data set: Inhibition of KRAS G12C mutant (unknown origin).
Data set [5] has as its system GTPase KRas (Homo sapiens), P01116 [G12C]. Nature of the data set: Inhibition of KRAS G12C mutant (unknown origin) at 10 uM relative to control.
A further data set concerns NCI-H441. Nature of the data set: Antiproliferative activity against human NCI-H441 cells harboring KRAS G12V mutant assessed as reduction in cell viability incubated for 72 hrs by MTT assay. Format: functional, cell-based. As to conditions: NCI-H441, 72 h. A general note: Tetrazolium assays rely on reduction of a dye to a coloured formazan, in cell work by metabolically active cells.

Another data set can be described thus: cells. The conditions noted are these: Homo sapiens, MKN-1.
In data set [6] the test system is von Hippel-Lindau disease tumor suppressor/GTPase KRas (Homo sapiens), P01116+P40337 [G12C]. The experiment in a line: Protac activity at VHL/KRAS G12C mutant in human SW1573 cells assessed as induction of protein degradation by measuring maximal efficacy at […] incubated for 72 hrs by Western blot analysis relative to control. Type of data set: cell-based. The conditions noted are these: dose 2.5 µM.

In data set [7] the target is von Hippel-Lindau disease tumor suppressor/GTPase KRas (Homo sapiens, UniProt P01116+P40337, G12C). Nature of the data set: Protac activity at VHL/KRAS G12C mutant in human NCI-H2030 cells assessed as degradation of KRAS G12C mutant incubated for 24 hrs by immunoblot assay. Format: cell-based.
The subject of data set [8] is NCI-H358. The experiment in a line: Antitumor activity against human NCI-H358 cells harboring KRAS G12C mutant xenografted in mouse model assessed as tumor growth inhibition at 10 mg/kg, po relative to control. Type of data set: functional. Set-up: scale not given: the % may be the effect or the level left.
For data set [9], the system named is NCI-H358. Nature of the data set: Antitumor activity against human NCI-H358 cells harboring KRAS G12C mutant xenografted in mouse model assessed as tumor growth inhibition at 100 mg/kg, po relative to control. Format: functional. Set-up: scale not given: the % may be the effect or the level left. A general note: Xenograft models place foreign cells or tissue in a host animal.

Data set [10] relates to NCI-H358. The experiment in a line: Antitumor activity against human NCI-H358 cells harboring KRAS G12C mutant xenografted in mouse model assessed as tumor growth inhibition at 30 mg/kg, po relative to control. Type of data set: functional. More on the design: scale not given: the % may be the effect or the level left.
The subject of data set [11] is von Hippel-Lindau disease tumor suppressor/GTPase KRas (Homo sapiens), P01116+P40337 [G12C]. Nature of the data set: PROTAC activity at VHL/KRAS G12C mutant in human NCI-H2030 cells assessed as induction of protein degradation by measuring maximal efficacy at […] incubated for 24 hrs by Immunoblotting analysis relative to control. Type of data set: cell-based. As to conditions: dose 2.5 µM.

A short description of data set [12]: Oral bioavailability in Sprague-Dawley rat. Format: ADME, organism-based. As to conditions: in vivo.
The nature of data set [13]: Volume of distribution at steady state in iv dosed CD-1 mouse. Type of data set: ADME, organism-based. The conditions noted are these: in vivo, read-out: Vdss.
Data set [14] can be described thus: Volume of distribution at steady state in iv dosed Sprague-Dawley rat by LC-MS/MS analysis. Type of data set: ADME, organism-based. As to conditions: in vivo, read-out: Vdss.
Data set [15] in a line: Oral bioavailability in CD-1 mouse. The conditions noted are these: in vivo. Type of data set: ADME, organism-based.
Data set [16] in a line: Clearance in iv dosed CD-1 mouse. Format: ADME, organism-based. The conditions noted are these: in vivo.
Data set [17] is described as follows: Volume of distribution at steady state in iv dosed Beagle dog. Type of data set: ADME, organism-based, Canis lupus familiaris. As to conditions: in vivo, read-out: Vdss.
A short description of data set [18]: Oral bioavailability in Beagle dog. Type of data set: ADME, organism-based, Canis lupus familiaris. As to conditions: in vivo.

Bounds are passed on as bounds.

As to `C=CC(=O)N1CC2(CC(n3nc(C(C)C)c(-c4c(C)ccc5[nH]ncc45)c3C)C2)C1`, in data set [1], the midpoint of inhibition, the IC50, lay at 3900 nM.
As for `C=CC(=O)N1CCN(c2nc(OC[C@@H]3CCCN3C)nc3c2CCN(c2cccc4ccccc24)C3)CC1`, 4400 nM corresponded to half-maximal inhibition in data set [2] (IC50).
Turning to `C=CC(=O)N1CC2(CC(n3nc(-c4ccc5c(cnn5C)c4)c(-c4c(Cl)c(C)cc5[nH]ncc45)c3C)C2)C1` [OPNURASIB], in [1], 20 nM corresponded to half-maximal inhibition (IC50).
Turning to `C[C@]1(c2nc(-c3cccc(N)c3)no2)CCCc2sc(N)c(C#N)c21`, the Kd (commonly the free concentration of one partner at which half of the binding sites on the other are occupied at equilibrium, for simple one-to-one binding) at GTPase KRas [3] was below 10000 nM.
`C=CC(=O)N1CC2(CC(n3nc(-c4ccc5[nH]ncc5c4)c(-c4c(Cl)c(C)cc5[nH]ncc45)c3C)C2)C1`: in [1], the IC50 (commonly the midpoint of a concentration-inhibition curve) came to 20 nM.
The compound `C=CC(=O)N1CC2(CC(n3nc(-c4ccccc4)c(-c4c(Cl)c(C)cc5[nH]ncc45)c3C)C2)C1` displayed an IC50 in data set [1] of 40 nM.
Consider `C=CC(=O)N1CCN(c2nc(OCC34CCCN3CCC4)nc3c2cc(-c2cccc4cccc(C)c24)n3C)C[C@@H]1CC#N`, for which the IC50 at GTPase KRas [4] stood at 1540 nM. Also, the inhibition (as a rule, the percentage by which the read-out fell short of the control) in data set [5] turned out to be 91.3%.
For `N#Cc1c(N)sc2c1CCCC2`, the IC50 with NCI-H441 came out at 16000 nM.
As for `C=CC(=O)N1CCN(c2nc(OC[C@@]34CCCN3C[C@H](F)C4)nc3c2cc(-c2cccc4cccc(C)c24)n3C)C[C@@H]1CC#N`, on GTPase KRas [4], the IC50 turned out to be 340 nM. Besides, in data set [5], the inhibition turned out to be 98.6%.
In “cells”, `Cc1c([C@@H](C)Nc2nnc(C)c3ccc(N4CCNCC4)cc23)cccc1C(F)(F)F` yielded an IC50 of 74 nM.
In turn, `C=CC(=O)N1CCN(c2nc(OC[C@@H]3CCCN3C)nc3c2CCN(c2cccc4ccccc24)C3)C[C@@H]1CC#N` came in with an IC50 in data set [2] of 10 nM.
In the case of `C=C(F)C(=O)N1CCN(c2nc(OC[C@@H]3CCCN3CCCCOCCC(=O)N[C@H](C(=O)N3C[C@H](O)C[C@H]3C(=O)NCc3ccc(-c4scnc4C)cc3)C(C)(C)C)nc3c2CCN(c2cccc4cccc(Cl)c24)C3)C[C@@H]1CC#N`, the Emax – broadly, the maximal effect, on the per cent scale that the assay sets – in data set [6] came to 90%. In addition, the 50% degradation concentration (DC50) (as a rule, the concentration at which degradation of the target reaches its halfway point) in data set [7] is 880 nM.
For `C=CC(=O)N1CCN(c2nc(OC[C@@H]3CCCN3C)nc3c2CCN(c2cccc4cccc(Cl)c24)C3)C[C@@H]1CC#N`, the Activity was 70% with NCI-H358 [8], 90% with NCI-H358 [9] and 89% with NCI-H358 [10].
For the compound `C=C(F)C(=O)N1CCN(c2nc(OC[C@@H]3CCCN3CCCOCCC(=O)N[C@H](C(=O)N3C[C@H](O)C[C@H]3C(=O)NCc3ccc(-c4scnc4C)cc3)C(C)(C)C)nc3c2CCN(c2cccc4cccc(Cl)c24)C3)C[C@@H]1CC#N`, the Emax was 90% in data set [6] and 75% in data set [11]. Also, the DC50 in data set [7] turned out to be 590 nM.
On to `C=C(F)C(=O)N1CCN(c2nc(OC[C@@H]3CCCN3CCOCCOCCC(=O)N[C@H](C(=O)N3C[C@H](O)C[C@H]3C(=O)NCc3ccc(-c4scnc4C)cc3)C(C)(C)C)nc3c2CCN(c2cccc4cccc(Cl)c24)C3)C[C@@H]1CC#N`, for which the Emax in data set [6] came out at 50%. For the same compound, the DC50 in data set [7] was above 10000 nM.
As for `Cc1c(C#N)cccc1[C@@H](C)Nc1nnc(C)c2cnc(N3CCOCC3)cc12` [MRTX-0902], the bioavailability in data set [12], in data set [15] and in data set [18] was 38% throughout. Moreover, the Vd in data set [13], in data set [14] and in [17] was 0.28 L/kg in each case. In data set [16], the clearance (as a rule, a measure of how efficiently the substance is removed, as volume per time) was 4.4 mL/min/kg.
As for `Cc1c([C@@H](C)Nc2nnc(C)c3cnc(N4CCOCC4)cc23)cccc1C(F)(F)F`, in the data set “cells”, the IC50 was 26 nM.
As for `C=C(F)C(=O)N1CCN(c2nc(OC[C@@H]3CCCN3CCC(=O)NCCC(=O)N[C@H](C(=O)N3C[C@H](O)C[C@H]3C(=O)NCc3ccc(-c4scnc4C)cc3)C(C)(C)C)nc3c2CCN(c2cccc4cccc(Cl)c24)C3)C[C@@H]1CC#N`, in [11], the Emax stood at 85%. For the same compound, the DC50 in [7] was found to be 6400 nM.
Compound `C=CC(=O)N1CCN(c2nc(OC[C@@H]3CCCN3C)nc3c2cc(-c2cccc4cccc(C)c24)n3C)C[C@@H]1CC#N` gave an inhibition in [5] of 39.8%.
Take `C=C(F)C(=O)N1CCN(c2nc(OC[C@@H]3CCCN3CCC(=O)NCCOCCC(=O)N[C@H](C(=O)N3C[C@H](O)C[C@H]3C(=O)NCc3ccc(-c4scnc4C)cc3)C(C)(C)C)nc3c2CCN(c2cccc4cccc(Cl)c24)C3)C[C@@H]1CC#N`: in data set [11], the Emax came out at 35%.
Turning to `CC1(C)CCCc2sc(N)c(C#N)c21`, the IC50 in the data set with NCI-H441 was below 10000 nM.
`C[C@]1(c2nc(-c3ccc(N)cc3)no2)CCCc2sc(N)c(C#N)c21`: the Kd on GTPase KRas [3] was below 10000 nM.
In data set [5], `C=CC(=O)N1CCN(c2nc(OC[C@@H]3CCCN3C)nc3c2cc(-c2cccc4ccccc24)n3C)C[C@@H]1CC#N` registered an inhibition of 17%.
Consider `C=C(F)C(=O)N1CCN(c2nc(OC[C@@H]3CCCN3CCC(=O)NCCOCCOCCC(=O)N[C@H](C(=O)N3C[C@H](O)C[C@H]3C(=O)NCc3ccc(-c4scnc4C)cc3)C(C)(C)C)nc3c2CCN(c2cccc4cccc(Cl)c24)C3)C[C@@H]1CC#N`, for which the Emax in data set [11] stood at 30%.
